Reference: patent publication US9896441B2 (Lycera Corporation, priority 2014, dated 2018)

What was measured:
Gal4-RORγ-LBD = molecular target: T1, Gal4-RORγ-LBD (Homo sapiens, UniProt P51449); assay: Gal4-RORγ Luciferase Reporter Assay in HEK-293T Cells; assay type: cell-based; details: HEK-293 cells, luciferase reporter; for Gal4-RORγ Assay Max Response: maximum response
T1 construct: expressed in transfected cells
T1 sequence (P51449 269-508 limits assumed): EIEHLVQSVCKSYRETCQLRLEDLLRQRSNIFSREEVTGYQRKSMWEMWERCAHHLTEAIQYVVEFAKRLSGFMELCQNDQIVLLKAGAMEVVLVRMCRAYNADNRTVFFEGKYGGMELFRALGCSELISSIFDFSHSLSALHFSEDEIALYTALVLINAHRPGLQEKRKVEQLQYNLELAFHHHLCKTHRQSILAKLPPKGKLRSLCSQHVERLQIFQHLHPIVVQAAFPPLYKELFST
Summary of the method: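 HEK-293 cells were co-transfected with Gal4-RORγ-LBD and a Gal4-luciferase reporter, then exposed overnight at 37 °C to compounds with […] ursolic acid present (0.2% DMSO). Luminescence was read with One-Glo after 10 min at RT, untreated signal was set as 100, and Max Response was taken as the upper plateau of a 4-parameter logistic fit.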

RORγ-LBD = molecular target: T2, RORγ-LBD (Homo sapiens, UniProt P51449); assay: RORγ-Ligand Binding Domain (LBD) TR-FRET Assay; assay type: biochemical; details: for TR-FRET Assay Max Response: maximum response;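 for TR-FRET Assay Max Response: 665/615 nm signal ratio set to 100 without ursolic acid or test compound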
T2 construct: made in house; host or cells: SF9 cells (baculovirus); used as diluted lysate
T2 sequence (P51449 269-508 limits assumed): T1 sequence (P51449 269-508 limits assumed)
Summary of the method: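 SF9 lysate containing His-RORγ-LBD, ~3 nM final; coactivator peptide biotin-SRC1 LXXLL, 200 nM final; ursolic acid 2 μM final; DMSO 1% final; Tris pH 7.0 buffer with KCl, EDTA, DTT, BSA. TR-FRET format.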

Structure (SMILES) | EC50 (Gal4-RORγ-LBD; with ursolic acid) | EC50 (RORγ-LBD; RORγ-LBD TR-FRET) | EC50 (Gal4-RORγ-LBD; in presence of ursolic acid) | Gal4-RORγ Assay Max Response (Gal4-RORγ-LBD; in presence of ursolic acid) | EC50 (RORγ-LBD; RORγ-LBD TR-FRET assay) | TR-FRET Assay Max Response (RORγ-LBD; RORγ-LBD TR-FRET assay)
CC1CCC(=Cc2ccc3c(c2)N(S(=O)(=O)c2cccc(C(F)(F)F)c2)C[C@H](CCC(=O)O)O3)CC1 (stereo partly drawn) [Example 95K, 3-((2S)-6-((4-methylcyclo-hexylidene)methyl)-4-((3-(trifluoromethyl)phenyl)sulfonyl)-3,4-dihydro-2H-benzo[b][1,4]oxazin-2-yl)propanoic acid] | 500 to 5000 nM | < 500 nM | – | – | – | –
COc1cc(S(=O)(=O)C2CC(CCC(=O)O)Oc3ccc(/C=C(\C)c4c(F)cccc4Cl)cc32)ccc1F (stereo not shown) [Example 186G, (E)-3-(6-(2-(2-chloro-6-fluorophenyl)prop-1-en-1-yl)-4-((4-fluoro-3-methoxyphenyl)-sulfonyl)chroman-2-yl)propanoic acid] | – | – | 500 to 5000 nM | ** (a value in the range of greater than 90 to 150) | < 500 nM | ** (a value in the range of greater than 90 to 150)
CC/C(C)=C\c1ccc2c(c1)N(S(=O)(=O)c1cccc(C(F)(F)F)c1)C[C@H](CCC(=O)O)O2 [Example 191B, (S,Z)-3-(6-(2-methylbut-1-en-1-yl)-4-((3-(trifluoromethyl)-phenyl)sulfonyl)-3,4-dihydro-2H-benzo[b][1,4]oxazin-2-yl)propanoic acid] | – | – | 500 to 5000 nM | *** (a value in the range of greater than 150 to 200) | < 500 nM | *** (a value in the range of greater than 150 to 200)
COC(=O)CC[C@H]1CN(S(=O)(=O)c2cccc(C(F)(F)F)c2)c2cc(/C=C/c3c(Cl)cccc3OC)ccc2O1 [Example 89EZ, methyl (S,E)-3-(6-(2-chloro-6-methoxystyryl)-4-((3-(trifluoromethyl)phenyl)-sulfonyl)-3,4-dihydro-2H-benzo[b][1,4]oxazin-2-yl)propanoate] | < 500 nM | < 500 nM | – | – | – | –
O=C(O)C1CCN(C(=O)CC[C@H]2CN(S(=O)(=O)c3cccc(C(F)(F)F)c3)c3cc(/C=C/c4c(Cl)cccc4C(F)(F)F)ccc3O2)CC1 [Example 129A, (S,E)-1-(3-(6-(2-chloro-6-(trifluoromethyl)styryl)-4-((3-(trifluoromethyl)-phenyl)sulfonyl)-3,4-dihydro-2H-benzo[b]-[1,4]oxazin-2-yl)propanoyl)piperidine-4-carboxylic acid] | – | – | < 500 nM | ** (a value in the range of greater than 90 to 150) | < 500 nM | **** (a value greater than 200)
COC(=O)CO[C@@H]1Cc2ccc(/C=C(\C)c3c(F)cccc3Cl)cc2N(S(=O)(=O)c2cccc(C(F)(F)F)c2)C1 [Example 173D, methyl (R,E)-2-((7-(2-(2-chloro-6-fluorophenyl)prop-1-en-1-yl)-1-((3-(trifluoromethyl)-phenyl)sulfonyl)-1,2,3,4-tetrahydroquinolin-3-yl)oxy)acetate] | – | – | < 500 nM | ** (a value in the range of greater than 90 to 150) | < 500 nM | ** (a value in the range of greater than 90 to 150)
O=C(O)CC[C@H]1CN(S(=O)(=O)c2cccc(OC(F)F)c2)c2cc(/C=C/c3ccccn3)ccc2O1 [Example 89C, (S,E)-3-(4-((3-(difluoromethoxy)-phenyl)sulfonyl)-6-(2-(pyridin-2-yl)vinyl)-3,4-dihydro-2H-benzo[b][1,4]oxazin-2-yl)propanoic acid] | 5000 to 10000 nM | 500 to 5000 nM | – | – | – | –
CCOc1ncc(C(F)(F)F)cc1S(=O)(=O)N1C[C@H](CCC(=O)O)Oc2ccc(/C=C/c3c(Cl)cccc3C(F)F)cc21 [Example 89EJ, (S,E)-3-(6-(2-chloro-6-(difluoromethyl)styryl)-4-((2-ethoxy-5-(trifluoromethyl)-pyridin-3-yl)sulfonyl)-3,4-dihydro-2H-benzo[b][1,4]-oxazin-2-yl)propanoic acid] | < 500 nM | < 500 nM | – | – | – | –
COC(=O)CC[C@H]1CN(S(=O)(=O)c2cccc(C(F)(F)F)c2)c2cc(/C=C(\C)c3ccccc3Cl)ccc2O1 [Example 86Z, (S,E)-methyl 3-(6-(2-(2-chlorophenyl)prop-1-en-1-yl)-4-((3-(trifluoromethyl)phenyl)-sulfonyl)-3,4-dihydro-2H-benzo[b][1,4]oxazin-2-yl)propanoate] | < 500 nM | < 500 nM | – | – | – | –
CC(C)n1cc(S(=O)(=O)N2C[C@H](CCC(=O)O)Oc3ccc(/C=C/c4c(Cl)cccc4C(F)(F)F)cc32)c(OCCO)n1 [Example 89ED, (S,E)-3-(6-(2-chloro-6-(trifluoromethyl)styryl)-4-((3-(2-hydroxyethoxy)-1-isopropyl-1H-pyrazol-4-yl)sulfonyl)-3,4-dihydro-2H-benzo[b][1,4]oxazin-2-yl)propanoic acid] | < 500 nM | < 500 nM | – | – | – | –
CCOc1ncc(Cl)cc1S(=O)(=O)N1C[C@H](CCC(=O)O)Oc2ccc(/C=C/c3c(Cl)cccc3C(F)(F)F)cc21 [Example 89CZ, (S,E)-3-(4-((5-chloro-2-ethoxypyridin-3-yl)sulfonyl)-6-(2-chloro-6-(trifluoromethyl)-styryl)-3,4-dihydro-2H-benzo-[b][1,4]oxazin-2-yl)propanoic acid] | 500 to 5000 nM | < 500 nM | – | – | – | –
COc1cc(S(=O)(=O)N2CCCc3ccc(OCc4c(F)cccc4C(F)(F)F)cc32)ccc1F [Example 25R, 1-((4-fluoro-3-methoxyphenyl)sulfonyl)-7-((2-fluoro-6-(trifluoromethyl)benzyl)oxy)-1,2,3,4-tetrahydroquinoline] | < 500 nM | < 500 nM | – | – | – | –
O=C(O)CC[C@H]1CN(S(=O)(=O)c2cccc(C(F)(F)F)c2)c2cc(/C=C3/CCCOC3)ccc2O1 [Example 95J, (S,Z)-3-(6-((dihydro-2H-pyran-3(4H)-ylidene)methyl)-4-((3-(trifluoromethyl)phenyl)sulfonyl)-3,4-dihydro-2H-benzo[b][1,4]oxazin-2-yl)propanoic acid] | 500 to 5000 nM | < 500 nM | – | – | – | –
C/C(=C\c1ccc2c(c1)C(S(=O)(=O)c1cccc(C(F)(F)F)c1)CC(CCC(=O)O)O2)c1c(F)cccc1Cl (stereo not shown) [Example 186I, (E)-3-(6-(2-(2-chloro-6-fluorophenyl)prop-1-en-1-yl)-4-((3-(trifluoromethyl)phenyl)-sulfonyl)chroman-2-yl)propanoic acid] | – | – | < 500 nM | ** (a value in the range of greater than 90 to 150) | < 500 nM | ** (a value in the range of greater than 90 to 150)
C/C(=C\c1ccc2c(c1)N(S(=O)(=O)c1cccc(C(F)(F)F)c1C)C[C@H](CCC(=O)O)O2)c1c(F)cccc1Cl [Example 86AM, (S,E)-3-(6-(2-(2-chloro-6-fluorophenyl)prop-1-en-1-yl)-4-((2-methyl-3-(trifluoromethyl)-phenyl)sulfonyl)-3,4-dihydro-2H-benzo[i,4]oxazin-2-yl)propanoic acid] | 500 to 5000 nM | < 500 nM | – | – | – | –
COc1cc(S(=O)(=O)N2C[C@H](CC(C)(C)C(=O)O)Cc3ccc(/C=C/c4c(F)cccc4Cl)cc32)ccc1F [Example 154A] | – | – | < 500 nM | * (a value in the range of 30 to 90) | < 500 nM | ** (a value in the range of greater than 90 to 150)
C/C(=C\c1cc2c(cc1Cl)O[C@@H](CCC(=O)O)CN2S(=O)(=O)c1cccc(C(F)(F)F)c1)c1c(F)cccc1Cl [Example 46, (S,E)-3-(7-Chloro-6-(2-(2-chloro-6-fluorophenyl)prop-1-en-1-yl)-4-((3-(trifluoromethyl)phenyl)sulfonyl)-3,4-dihydro-2H-benzo[b][1,4]oxazin-2-yl)propanoic acid] | < 500 nM | < 500 nM | – | – | – | –
CCOC(=O)[C@@H]1Cc2ccc(OC3CCc4ccccc43)cc2N(S(=O)(=O)c2ccc(F)c(OC)c2)[C@@H]1C (mixture of isomers) [Example 20, (2R,3R)-Ethyl 7-((2,3-dihydro-1H-inden-1-yl)oxy)-1-((4-fluoro-3-methoxyphenyl)sulfonyl)-2-methyl-1,2,3,4-tetrahydroquinoline-3-carboxylate] | < 500 nM | < 500 nM | – | – | – | –
CCOc1ncc(C(F)(F)F)cc1S(=O)(=O)N1C[C@H](CCC(=O)O)Oc2ccc(/C=C(\C)c3c(Cl)cccc3C(F)(F)F)cc21 [Example 77, (S,E)-3-(6-(2-(2-Chloro-6-(trifluoromethyl)phenyl)prop-1-en-1-yl)-4-((2-ethoxy-5-(trifluoromethyl)pyridin-3-yl)sulfonyl)-3,4-dihydro-2H-benzo[b][1,4]oxazin-2-yl)propanoic acid] | 500 to 5000 nM | < 500 nM | – | – | – | –
Cc1cccnc1/C=C/c1ccc2c(c1)N(S(=O)(=O)c1cccc(C(F)(F)F)c1)C[C@H](CCC(=O)O)O2 [Example 89BJ, (S,E)-3-(6-(2-(3-methylpyridin-2-yl)vinyl)-4-((3-(trifluoromethyl)phenyl)sulfonyl)-3,4-dihydro-2H-benzo[b][1,4]oxazin-2-yl)propanoic acid] | 500 to 5000 nM | < 500 nM | – | – | – | –
